{"source": "paper PMC12814185", "about": "“Receptor-Mediated Shuttling of a D‑Amino Acid Peptide Achieves High Nanomolar Cytosolic Concentrations” (Journal of the American Chemical Society, 2025)", "key": {"[1]": {"conditions": "printed as (reference) in the column measured D; calibration standard of the focal volume; source not shown; cited from earlier work", "source_text": "Descriptive statistics of fluorescence correlation spectroscopy (FCS) data from Figure 3. Measurements were obtained in stably transfected HEK293_CMKLR1-eYFP cells as well as endogenously CMKLR1-expressing HMEC-1 and THP-1 cells. SD – standard deviation, GSD – geometric SD factor, IQR – interquartile range applied mean ± SD geometric median (IQR) cell line N° name concentration [nM] mean *÷ GSD [nM] [nM] [nM] HEK29 ..."}, "[2]": {"target": "T1, recombinant human GST-MDM2 (Homo sapiens, UniProt Q00987)", "T1 construct": "purchased R&D Systems", "T1 sequence (Q00987 whole entry)": "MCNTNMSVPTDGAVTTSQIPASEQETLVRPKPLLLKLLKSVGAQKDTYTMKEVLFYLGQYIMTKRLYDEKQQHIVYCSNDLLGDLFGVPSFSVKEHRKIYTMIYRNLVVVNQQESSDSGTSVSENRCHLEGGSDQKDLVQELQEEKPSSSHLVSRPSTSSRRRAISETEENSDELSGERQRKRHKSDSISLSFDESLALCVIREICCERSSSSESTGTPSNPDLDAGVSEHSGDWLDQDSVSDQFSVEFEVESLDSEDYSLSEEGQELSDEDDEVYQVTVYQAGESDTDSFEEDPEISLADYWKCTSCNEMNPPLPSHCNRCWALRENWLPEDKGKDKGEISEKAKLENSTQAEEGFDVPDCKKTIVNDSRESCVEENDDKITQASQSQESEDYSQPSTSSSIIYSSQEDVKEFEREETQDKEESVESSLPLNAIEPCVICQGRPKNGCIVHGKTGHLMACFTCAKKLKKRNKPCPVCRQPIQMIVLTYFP", "assay": "Fluorescence polarization binding of Cy5-labeled peptides to MDM2", "conditions": "20 nM Cy5-labeled peptide, FP buffer pH 7.4, 30 min room temperature; performed twice in technical triplicates", "method": "(B) Fluorescence polarization measurement of 20 nM Cy5-labeled peptides binding to recombinant human GST-MDM2.\n20 nM of Cy5-labeled peptides were added to dilutions of human MDM2 (Recombinant Human GST -\nMDM2/HDM2, R&D Systems) in FP buffer (50 mM tris(hydroxymethyl)aminomethane (Tris, Carl Roth),\n150 mM sodium chloride (Sigma), 1 mM EDTA (Sigma), 0.01% (v/v) Tween20 (Sigma), pH 7.4) and\nincubated for 30 min at room temperature. Fluorescence polarization was then measured in a Tecan\nSpark plate reader (λex = 640 nm, λem = 670 nm). Measurements were performed twice in technical\ntriplicates. Data was then fit with Prism 10 (GraphPad) using non-linear regression with the following\nsolution to the quadratic binding equation 1 to obtain Kd:\n𝐹𝑃 = 𝐹𝑃 + (𝐹𝑃 − 𝐹𝑃 ) ∗ 𝑐 + 𝑐 + 𝐾 − 𝑝𝑒𝑝𝑡𝑖𝑑𝑒 𝑀𝐷𝑀2 𝑑 𝑝𝑒𝑝𝑡𝑖𝑑𝑒 𝑀𝐷𝑀2"}, "CMKLR1": {"target": "T2, CMKLR1 (Homo sapiens, UniProt Q99788)", "T2 construct": "expressed in transfected cells; host or cells: COS-7 (stably transfected, CMKLR1-eYFP + Δ6Gαqi4myr)", "T2 sequence (Q99788 1-373)": "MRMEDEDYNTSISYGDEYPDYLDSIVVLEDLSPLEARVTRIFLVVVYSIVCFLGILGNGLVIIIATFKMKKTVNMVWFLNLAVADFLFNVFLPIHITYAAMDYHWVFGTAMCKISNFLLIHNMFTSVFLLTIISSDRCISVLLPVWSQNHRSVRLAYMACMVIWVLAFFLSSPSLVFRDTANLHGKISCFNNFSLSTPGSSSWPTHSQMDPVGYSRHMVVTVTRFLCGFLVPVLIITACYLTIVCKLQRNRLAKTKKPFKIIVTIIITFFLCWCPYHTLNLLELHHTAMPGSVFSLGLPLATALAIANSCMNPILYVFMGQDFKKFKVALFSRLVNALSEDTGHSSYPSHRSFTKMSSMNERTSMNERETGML", "assay": "Ca2+ flux assay in COS-7_CMKLR1-eYFP_Δ6Gαqi4myr cells", "type": "cell-based", "conditions": "maximum signal over baseline normalized to peptide 1, at least two independent experiments in duplicate", "method": "(C) Activity of the cyclic chemerin-9 (cC9) derivatives at CMKLR1 tested in a Ca^2+ flux assay. Data points represent the mean ± SEM of at least two independent experiments performed in duplicate.\nCalcium flux assay was performed with cells expressing CMKLR1 and the chimeric G protein Δ6Gαqi4myr.\nThe stably transfected COS-7_CMKLR1-eYFP_ Δ6Gαqi4myr cells were seeded at 25,000 cells per well into poly-ᴅ-lysine-coated 96-well plates (black µCLEAR, Greiner). The next day, cells were incubated with 2.3 µM Fluo-2-AM (Abcam) and 0.06% (v/v) Pluronic-F127 (Sigma) in assay buffer (2.5 mM probenecid (Sigma), 20 mM 4-(2-hydroxyethyl)-1-piperazineethanesulfonic acid (HEPES, Sigma) in Hanks' Balanced Salt Solution (HBSS, Biowest), pH 7.5) for 1 h. This solution was replaced by assay buffer, and basal Ca2+ signal (λex = 485 nm, λem = 525 nm) was measured for 20 s with a Flexstation 3 plate reader (Molecular Devices). Peptide dilutions were added, and the Ca2+ response was measured for 40 s. The maximum signal over baseline was calculated and normalized to peptide 1 (N3-cC9). Non-linear regression was performed using Prism 10 (GraphPad). Experiments were performed in technical duplicates and at least"}, "HEK293_CMKLR1-eYFP cells": {"test_system": "HEK293_CMKLR1-eYFP cells", "assay": "Resazurin based cell viability assay, peptides", "conditions": "72 h incubation", "procedure": "page 3: […] 15% FCS. Calcium flux assay Calcium flux assay was performed with cells expressing CMKLR1 and the chimeric G protein […]. The stably transfected COS-7_CMKLR1-eYFP_ […] were seeded at 25,000 cells per well into poly-ᴅ-lysine-coated 96-well plates (black μCLEAR, Greiner). The next day, cells were incubated with […] (Sigma), 20 mM 4-(2-hydroxyethyl)-1-piperazineethanesulfonic acid (HEPES, Sigma) in Hanks' Balanced […] This solution was replaced by assay buffer, and basal Ca2+ signal (λex = 485 nm, λem = 525 nm) was measured for 20 s with a Flexstation 3 plate reader (Molecular Devices). Peptide dilutions were added, and the Ca2+ response was measured for 40 s. The maximum signal over baseline was calculated and normalized to peptide 1 (N3-cC9). Non-linear regression was performed using Prism 10 (GraphPad). Experiments were performed in technical duplicates and at least twice. Cell viability assay HEK293 and HEK293_CMKLR1-eYFP cells were seeded at 15,000 cells per well into poly-ᴅ-lysine coated 96-well plates (black μCLEAR, Greiner). […] Cells were then washed and a resazurin-based cell viability assay was performed. […] (1:1) + 15% FBS without phenol red was added to the cells. […] using the fluorescence of resorufin (λex = 550 nm, λem = 595 nm). Data was normalized to cells incubated without peptide (100%) and cells treated with ethanol for 3 min before resazurin addition (0%). Experiments were performed in technical triplicates and at least twice. Fluorescence microscopy Peptide internalization was evaluated by fluorescence microscopy. […] the cells and incubated for 6 h. […] All shown microscopy images are representative of at least two independent experiments. […] Resazurin based cell viability assay of HEK293 and HEK293_CMKLR1-eYFP cells after 72 h incubation with the p53/MDM2 inhibitor Nutlin-3a. […] 100 50 2Cy 3Cy 4Cy 0 -8 -7 -6 -5 -4 […]], log Figure S4. Resazurin based cell viability assay of HEK293_CMKLR1-eYFP cells after 72 h incubation with the PMIγ peptides discussed in this work. Mean ± SEM from two independent experiments performed in triplicates. 15 […]"}, "p53/MDM2 interaction": {"target": "T3, p53/MDM2 interaction (Homo sapiens, UniProt Q00987)", "T3 construct": "host or cells: HEK293 and HEK293_CMKLR1-eYFP", "T3 sequence (Q00987 whole entry)": "as the sequence (Q00987 whole entry) above", "assay": "Inhibition of intracellular p53-HaloTag/NanoLuc-MDM2 BRET", "type": "cell-based", "conditions": "unlabeled peptides, 72 h", "procedure": "Peptides were incubated on HEK293 and HEK293_CMKLR1-eYFP cells for 72 h, before BRET was measured. Nutlin-3a was incubated on HEK293 cells for 24 h before BRET was measured. Mean ± SEM from two independent experiments performed in duplicate. […]\ndividing the Cy5-signal (670±30 nm) by the NanoLuc signal (450±20 nm). netBRET was calculated by subtracting the BRET ratio from cells which were incubated without peptide. To calculate the CMKLR1-specific effect, ΔBRET was calculated by subtracting the netBRET value obtained in cells without CMKLR1 from netBRET obtained in cells with CMKLR1. After the initial readout, a kinetic BRET displacement was performed with the same cells. For this, luminescence was measured every 22 s. After 3 min, 10 µM of the small molecule MDM2 antagonist Nutlin-3a (Sigma) was added to the cells and BRET was measured for another 7 min. Experiments were performed in technical duplicates and three independent times. […]\nwere then incubated with dilutions of unlabeled PMIγ -peptides for 72 h or with Nutlin-3a for 24 h. […] After 10 min incubation, luminescence was measured, and BRET ratio was calculated by dividing the TMR-signal (600±50 nm) by the NanoLuc signal (450±20 nm). netBRET was calculated and normalized to cells without peptide (100%) and cells which were not label ed with HaloTag TMR Ligand (0%). […]"}, "[3]": {"conditions": "read-out: pEC50 ± SEM (converted)"}}, "note": "Read-outs that look alike come from different tables or passages of the source. Where a SMILES comes first, the peptide text is derived from it. Bridges are numbered along the chain shown (N, C = ends). Roman numbers before positions name the chains, in order. Triazole bridges read from a SMILES are 1,4-linked. Where no end group is shown, it is not given here. [ ]: non-standard residue; d: D form. Lys(N3) = [N-]=[N+]=NCCCC[C@H](N)C(=O)O; Cit = NC(=O)NCCC[C@H](N)C(=O)O; d(hCys) = N[C@H](CCS)C(=O)O; PEG3 = NCCOCCOCCOCCC(=O)O; Pra = C#CC[C@H](N)C(=O)O", "data": [{"compound": "sulfo-cyanine5 [sulfo-Cy5]", "values": [{"measurement": "D in solution, reference", "setting": "[1]", "result": 341.6, "unit": "µm2/s"}]}, {"compound": "C#CC[C@H](NC(=O)CCOCCOCCOCCNC(=O)[C@H](CCCNC(N)=O)NC(=O)[C@@H](NC(=O)[C@H](CCC(=O)O)NC(=O)CNC(=O)[C@@H](CCCNC(=N)N)NC(=O)[C@@H](CC(C)C)NC(=O)[C@@H](CC(C)C)NC(=O)[C@@H](C)NC(=O)[C@@H](CCC(=O)O)NC(=O)[C@@H](Cc1ccccc1)NC(=O)[C@@H](C)NC(=O)[C@@H](CC(C)C)NC(=O)[C@H]1CCCN1C(=O)[C@@H](Cc1c[nH]c2ccccc12)NC(=O)[C@@H](Cc1c[nH]c2ccccc12)NC(=O)[C@@H](CC(=O)O)NC(=O)CCOCCOCCOCCNC(=O)[C@@H](CCCNC(=N)N)NC(=O)[C@@H](CCCNC(=N)N)NC(=O)[C@@H](CCCNC(=N)N)NC(=O)[C@@H](CCCNC(=N)N)NC(=O)[C@@H](CCCNC(=N)N)NC(=O)[C@@H](CCCNC(=N)N)NC(=O)[C@@H](CCCNC(=N)N)NC(=O)[C@@H](CCCNC(=N)N)NC(=O)[C@@H](CCCNC(=N)N)NC(=O)CCOCCOCCOCCNC(=O)CCCCC[N+]1=C(C=CC=CC=C2N(C)c3ccc(S(=O)(=O)O)cc3C2(C)C)C(C)(C)c2cc(S(=O)(=O)[O-])ccc21)C(C)C)C(N)=O", "note": "[4Cy]", "values": [{"measurement": "Kd", "setting": "[2]", "result": "57.1 ± 21.8", "unit": "nM"}]}, {"compound": "I: GSVSHHHHHHGGHHHH[PEG3][dD][dW][dW][dP][dL][dA][dF][dE][dA][dL][dL][dR]GEV[Cit][PEG3][Pra]-NH2 / II: Ac-[Lys(N3)]YFP[d(hCys)]QFAFC (triazole I:35-II:1; disulfide II:5-II:10) [compound 3]", "values": [{"measurement": "EC50", "setting": "CMKLR1; read-out: EC50", "result": 70.6, "unit": "nM"}, {"measurement": "EC50", "setting": "CMKLR1; [3]", "result": 70.8, "unit": "nM"}, {"measurement": "cytotoxicity", "setting": "HEK293_CMKLR1-eYFP cells", "result": "tolerated slightly worse at concentrations above 1 μM"}]}, {"compound": "CC(=O)N[C@@H](CCCCn1cc(C[C@H](NC(=O)CCOCCOCCOCCNC(=O)[C@H](CCCNC(N)=O)NC(=O)[C@@H](NC(=O)[C@H](CCC(=O)O)NC(=O)CNC(=O)CNC(=O)[C@@H](CCCNC(=N)N)NC(=O)[C@@H](CC(C)C)NC(=O)[C@@H](CC(C)C)NC(=O)[C@@H](C)NC(=O)[C@@H](CCC(=O)O)NC(=O)[C@@H](Cc2ccccc2)NC(=O)[C@@H](C)NC(=O)[C@@H](CC(C)C)NC(=O)[C@H]2CCCN2C(=O)[C@@H](Cc2c[nH]c3ccccc23)NC(=O)[C@@H](Cc2c[nH]c3ccccc23)NC(=O)[C@H](N)CC(=O)O)C(C)C)C(N)=O)nn1)C(=O)N[C@@H](Cc1ccc(O)cc1)C(=O)N[C@@H](Cc1ccccc1)C(=O)N1CCC[C@H]1C(=O)N[C@@H]1CCSSC[C@@H](C(=O)O)NC(=O)[C@H](Cc2ccccc2)NC(=O)[C@H](C)NC(=O)[C@H](Cc2ccccc2)NC(=O)[C@H](CCC(N)=O)NC1=O", "note": "[compound 2] (I: H-[dD][dW][dW][dP][dL][dA][dF][dE][dA][dL][dL][dR]GGEV[Cit][PEG3][Pra]-NH2 / II: Ac-[Lys(N3)]YFP[d(hCys)]QFAFC-OH; triazole I:19-II:1; disulfide II:5-II:10; N-terminus assumed)", "values": [{"measurement": "cytotoxicity", "setting": "HEK293_CMKLR1-eYFP cells", "result": "no signs of cytotoxicity"}, {"measurement": "extent of competition of the p53/MDM2 interaction", "setting": "p53/MDM2 interaction", "result": "neither achieved full competition"}, {"measurement": "displacement of NanoLuc-MDM2/p53-HaloTag BRET", "setting": "p53/MDM2 interaction; HEK293 versus HEK293_CMKLR1-eYFP", "result": "CMKLR1-selective effects at extracellular concentrations above 1 μM"}]}, {"compound": "CC(=O)N[C@@H](CCCCN=[N+]=[N-])C(=O)N[C@@H](Cc1ccc(O)cc1)C(=O)N[C@@H](Cc1ccccc1)C(=O)N1CCC[C@H]1C(=O)N[C@@H]1CCSSC[C@@H](C(=O)O)NC(=O)[C@H](Cc2ccccc2)NC(=O)[C@H](C)NC(=O)[C@H](Cc2ccccc2)NC(=O)[C@H](CCC(N)=O)NC1=O", "note": "[compound 1] (Ac-[Lys(N3)]YFP[d(hCys)]QFAFC-OH; disulfide 5-10)", "values": [{"measurement": "EC50", "setting": "CMKLR1; [3]", "result": 3.47, "unit": "nM"}]}]}
